Experiments:
Assay in all cases: Test D controlled growth environment herbicide test, pre- and postemergence
Format in all cases: in vivo
[1] = system: canarygrass (Phalaris minor)
In short: (§1)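 Species sown in silt loam and sprayed preemergence, or grown in peat-based medium to 2–18 cm (1- to 4-leaf stage) and sprayed postemergence, with compounds in non-phytotoxic solvent plus surfactant. Visual injury scored versus controls after 14–21 d in a controlled environment, 0 (no effect) to 100 (complete control).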

[2] = system: ryegrass, Italian (Italian ryegrass, Lolium multiflorum)
In short: as §1

[3] = system: bluegrass (annual bluegrass, Poa annua)
In short: as §1

kochia (Kochia scoparia) = system: kochia (Kochia scoparia)
In short: as §1

[4] = system: Russian thistle (Salsola kali)
In short: as §1

[5] = system: oilseed rape (Brassica napus)
In short: as §1

[6] = system: deadnettle (henbit deadnettle, Lamium amplexicaule)
In short: as §1

[7] = system: field violet (Viola arvensis)
In short: as §1

[8] = system: buckwheat, wild (wild buckwheat, Polygonum convolvulus)
In short: as §1

[9] = system: speedwell (bird's-eye speedwell, Veronica persica)
In short: as §1

[10] = system: galium (catchweed bedstraw, Galium aparine)
In short: as §1

[11] = system: barley, spring (spring barley, Hordeum vulgare)
In short: as §1

[12] = system: radish, wild (wild radish, Raphanus raphanistrum)
In short: as §1

[13] = Postemergence, 31 g ai/ha, scale 0 to 100 (0 no effect, 100 complete control)
[14] = Postemergence, 125 g ai/ha, visual rating on scale 0 (no effect) to 100 (complete control), 14 to 21 d
[15] = Postemergence, 250 g ai/ha, scale 0 to 100 (0 no effect, 100 complete control)
[16] = Preemergence, 62 g ai/ha, scale 0 to 100 (0 no effect, 100 complete control)
[17] = Preemergence, 125 g ai/ha, scale 0 to 100 (0 no effect, 100 complete control)
[18] = Preemergence, 250 g ai/ha, scale 0 to 100, 0 no effect, 100 complete control
[19] = postemergence, 62 g ai/ha, scale 0 to 100, 0 no effect, 100 complete control

Cc1nn(C)c(=O)c(-c2c(C)sc3c(C)cc(Cl)cc23)c1O [Compound 35]
80: Plant response rating, Canarygrass [1, 15] | Plant response rating, Ryegrass, Italian [2, 14] | Plant response rating, Deadnettle [6, 15] | Plant response rating, Deadnettle [6, 18] | Plant response rating, Speedwell [9, 14] | Plant response rating (scale of 0 to 100), Galium ([10]; Preemergence, 31 g ai/ha)
55: Plant response rating, Deadnettle [6, 17]
15: Deadnettle plant response rating [6, 13] | Plant response rating, Deadnettle [6, 16] | Plant response rating (scale of 0 to 100), Field Violet ([7]; Preemergence, 31 g ai/ha) | Plant response rating (scale of 0 to 100), Buckwheat, Wild ([8]; Preemergence, 31 g ai/ha) | Plant response rating, Barley, Spring [11, 15]
75: Plant response rating (scale of 0 to 100), Canarygrass ([1]; Preemergence, 31 g ai/ha) | Plant response rating (scale of 0 to 100), Ryegrass, Italian ([2]; Preemergence, 31 g ai/ha) | Plant response rating, Ryegrass, Italian [2, 19] | Plant response rating, Russian Thistle [4, 19] | Plant response rating, Field Violet [7, 14] | Plant response rating, Field Violet [7, 16] | Plant response rating, Field Violet [7, 19] | Plant response rating, Speedwell [9, 16] | Plant response rating, Speedwell [9, 19]
35: Bluegrass plant response rating [3, 13] | Plant response rating, Bluegrass [3, 14] | Plant response rating, Bluegrass [3, 17] | Plant response rating, Buckwheat, Wild [8, 18] | Plant response rating (scale of 0 to 100), Radish, Wild ([12]; Preemergence, 31 g ai/ha)
45: Bluegrass plant response rating [3, 18]
90: Plant response rating, Ryegrass, Italian [2, 15]
40: Plant response rating, Bluegrass [3, 15]
25: Plant response rating (scale of 0 to 100), Bluegrass ([3]; Preemergence, 31 g ai/ha) | Plant response rating, Bluegrass [3, 16] | Plant response rating, Bluegrass [3, 19] | Kochia plant response rating (kochia (Kochia scoparia); [13]) | Plant response rating, Kochia (kochia (Kochia scoparia); [18]) | Plant response rating, Russian Thistle [4, 18]
65: Ryegrass, Italian plant response rating [2, 13] | Plant response rating, Kochia (kochia (Kochia scoparia); [14]) | Plant response rating, Oilseed Rape [5, 17] | Field Violet plant response rating [7, 13]
10: Plant response rating, Oilseed Rape [5, 16] | Plant response rating, Barley, Spring [11, 14]
20: Canarygrass plant response rating [1, 13] | Plant response rating, Kochia (kochia (Kochia scoparia); [17]) | Plant response rating, Kochia (kochia (Kochia scoparia); [19]) | Plant response rating, Deadnettle [6, 14] | Plant response rating, Deadnettle [6, 19] | Plant response rating, Buckwheat, Wild [8, 16] | Plant response rating, Buckwheat, Wild [8, 17]
95: Plant response rating, Canarygrass [1, 17] | Plant response rating, Russian Thistle [4, 15] | Oilseed Rape plant response rating [5, 13] | Buckwheat, Wild plant response rating [8, 13] | Plant response rating, Galium [10, 14] | Plant response rating, Galium [10, 17]
98: Plant response rating, Canarygrass [1, 18] | Plant response rating, Oilseed Rape [5, 19] | Plant response rating, Field Violet [7, 15] | Galium plant response rating [10, 13] | Plant response rating, Galium [10, 19]
85: Plant response rating, Canarygrass [1, 16] | Plant response rating, Ryegrass, Italian [2, 16] | Plant response rating, Russian Thistle [4, 14] | Plant response rating, Field Violet [7, 17] | Plant response rating, Galium [10, 16] | Radish, Wild plant response rating [12, 13]
30: Plant response rating, Canarygrass [1, 19]
0: Plant response rating (scale of 0 to 100), Kochia (kochia (Kochia scoparia); Preemergence, 31 g ai/ha) | Plant response rating, Kochia (kochia (Kochia scoparia); [16]) | Plant response rating (scale of 0 to 100), Russian Thistle ([4]; Preemergence, 31 g ai/ha) | Plant response rating, Russian Thistle [4, 16] | Plant response rating, Russian Thistle [4, 17] | Plant response rating (scale of 0 to 100), Oilseed Rape ([5]; Preemergence, 31 g ai/ha) | Plant response rating (scale of 0 to 100), Deadnettle ([6]; Preemergence, 31 g ai/ha) | Plant response rating (scale of 0 to 100), Speedwell ([9]; Preemergence, 31 g ai/ha) | Plant response rating, Barley, Spring [11, 13] | Plant response rating (scale of 0 to 100), Barley, Spring ([11]; Preemergence, 31 g ai/ha) | Plant response rating, Barley, Spring [11, 16] | Plant response rating, Barley, Spring [11, 17] | Barley, Spring plant response rating [11, 18] | Plant response rating, Barley, Spring [11, 19]
70: Plant response rating, Canarygrass [1, 14] | Plant response rating, Kochia (kochia (Kochia scoparia); [15]) | Russian Thistle plant response rating [4, 13] | Speedwell plant response rating [9, 13]
100: Plant response rating, Ryegrass, Italian [2, 17] | Plant response rating, Ryegrass, Italian [2, 18] | Plant response rating, Oilseed Rape [5, 14] | Plant response rating, Oilseed Rape [5, 15] | Plant response rating, Oilseed Rape [5, 18] | Plant response rating, Field Violet [7, 18] | Plant response rating, Buckwheat, Wild [8, 14] | Plant response rating, Buckwheat, Wild [8, 15] | Plant response rating, Buckwheat, Wild [8, 19] | Plant response rating, Speedwell [9, 15] | Plant response rating, Speedwell [9, 17] | Plant response rating, Speedwell [9, 18] | Plant response rating, Galium [10, 15] | Plant response rating, Galium [10, 18] | Plant response rating, Radish, Wild [12, 14] | Plant response rating, Radish, Wild [12, 15] | Plant response rating, Radish, Wild [12, 16] | Plant response rating, Radish, Wild [12, 17] | Plant response rating, Radish, Wild [12, 18] | Plant response rating, Radish, Wild [12, 19]

— patent US10597388B2, “Pyridazinone herbicides” (FMC CORPORATION, priority 2014, dated 2020)
